# From patent publication US12564193B2, “Isoxazoline-substituted benzamide derivative, and preparation method therefor and use thereof” (SHANDONG UNITED PESTICIDE INDUSTRY CO., LTD., priority 2020, dated 2026)
# Like-named read-outs stand apart in the source and are kept apart here.
# Columns and labels:
# Format in all cases: in vivo
# [1] = system: Frankliniella occidentalis; assay: Insecticidal activity, spray on pre-infested radish plants: Frankliniella occidentalis; conditions: for Fatality rate on Frankliniella occidentalis (%): Table 3; for pest or weed control at 1 ppm / pest or weed control at 10 ppm / pest or weed control at 25 ppm: Frankliniella occidentalis, 144 h, read-out: fatality rate on Frankliniella occidentalis
# How it was run: (§1)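 Compounds were dissolved in a suitable solvent such as acetone, methanol or DMSO and sprayed onto 12-15 day old radish plants pre-infested with 30-40 pests by the leaf-cutting method. After drying for 1 hour under mesh, plants were held 6 days at 25° C and 70% relative humidity before mortality was scored visually.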
# Plutella xylostella = assay: Insecticidal activity, spray on pre-infested radish plants: Plutella xylostella; conditions: for Fatality rate on Plutella xylostella (%): Table 3; for pest or weed control at 0.1 ppm / pest or weed control at 1 ppm / pest or weed control at 10 ppm: Plutella xylostella, 144 h, read-out: fatality rate on Plutella xylostella
# How it was run: as §1
# Pieris rapae = assay: Insecticidal activity, spray on pre-infested radish plants: Pieris rapae; conditions: 144 h, read-out: fatality rate on Pieris rapae
# How it was run: (§2)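 First, 30-40 pests are transferred onto 12-15 day old radish plants on a cut leaf, and the soil is covered with sand. The compound solution is then sprayed and left to dry for 1 hour before a mesh cover is fitted. Insect mortality is read visually after 6 days at 25° C and 70% relative humidity.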
# Mythimna separata = assay: Insecticidal activity, spray on pre-infested radish plants: Mythimna separata; conditions: for Fatality rate on Mythimna separata (%): Table 3; for pest or weed control at 0.1 ppm / pest or weed control at 1 ppm / pest or weed control at 10 ppm: Mythimna separata, 144 h, read-out: fatality rate on Mythimna separata
# How it was run: as §1
# Spodoptera litura = assay: Insecticidal activity, spray on pre-infested radish plants: Spodoptera litura; conditions: 144 h, read-out: fatality rate on Spodoptera litura
# How it was run: as §1
# Chilo suppressalis = assay: Insecticidal activity, spray on pre-infested radish plants: Chilo suppressalis; conditions: for Fatality rate on Chilo suppressalis (%): Table 3; for pest or weed control at 0.1 ppm / pest or weed control at 1 ppm / pest or weed control at 10 ppm: Chilo suppressalis, 144 h, read-out: fatality rate on Chilo suppressalis
# How it was run: as §1
# Cnaphalocrocis medinalis = assay: Insecticidal activity, spray on pre-infested radish plants: Cnaphalocrocis medinalis; conditions: 144 h, read-out: fatality rate on Cnaphalocrocis medinalis
# How it was run: as §2
# Tetranychus cinnabarinus = assay: Acaricidal activity, slide immersion of female adult mites: Tetranychus cinnabarinus; conditions: read-out: fatality rate on Tetranychus cinnabarinus
# How it was run: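 Female adult mites stuck dorsally on tape on slides (4 rows of 10), dipped 5 s in test solution, excess blotted, incubated 24 h. Mites with immobile feet on brush touch scored dead; fatality rate calculated.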
# [2] = dose 1 ppm, immersion 5 seconds, checked after 24 hours
# [3] = dose 10 ppm, immersion 5 seconds, checked after 24 hours
# [4] = dose 25 ppm, immersion 5 seconds, checked after 24 hours
structure (smiles),measurement,setting,value
"Cc1cc(C2=NOC(c3cc(F)c(F)c(F)c3)(C(F)(F)F)C2)ccc1C(=O)NCc1ncc(C(F)(F)F)cc1Cl (stereo not drawn) [Compound 10, N-((3-chloro-5-(trifluoromethyl)pyridin-2-yl)methyl)-2-methyl-4-(5-(trifluoromethyl)-5-(3,4,5-trifluorophenyl)-4,5-dihydroisoxazol-3-yl)benzamide]",Fatality rate on Frankliniella occidentalis (%),[1]; 1 ppm,85%
same,Fatality rate on Frankliniella occidentalis (%),[1]; 10 ppm,100%
same,Fatality rate on Frankliniella occidentalis (%),[1]; 25 ppm,100%
same,pest or weed control at 1 ppm,"[1]; dose 1 ppm, spray, 6 days",> 80%
same,pest or weed control at 10 ppm,"[1]; dose 10 ppm, spray, 6 days",> 80%
same,pest or weed control at 25 ppm,"[1]; dose 25 ppm, spray, 6 days",> 80%
same,Fatality rate on Plutella xylostella (%),Plutella xylostella; 0.1 ppm,90%
same,Fatality rate on Plutella xylostella (%),Plutella xylostella; 1 ppm,100%
same,Fatality rate on Plutella xylostella (%),Plutella xylostella; 10 ppm,100%
same,pest or weed control at 0.1 ppm,"Plutella xylostella; dose 0.1 ppm, spray, 6 days",> 80%
same,pest or weed control at 1 ppm,"Plutella xylostella; dose 1 ppm, spray, 6 days",> 80%
same,pest or weed control at 10 ppm,"Plutella xylostella; dose 10 ppm, spray, 6 days",> 80%
same,pest or weed control at 0.1 ppm,"Pieris rapae; dose 0.1 ppm, spray, 6 days",> 80%
same,pest or weed control at 1 ppm,"Pieris rapae; dose 1 ppm, spray, 6 days",> 80%
same,pest or weed control at 10 ppm,"Pieris rapae; dose 10 ppm, spray, 6 days",> 80%
same,Fatality rate on Mythimna separata (%),Mythimna separata; 0.1 ppm,85%
same,Fatality rate on Mythimna separata (%),Mythimna separata; 1 ppm,100%
same,Fatality rate on Mythimna separata (%),Mythimna separata; 10 ppm,100%
same,pest or weed control at 0.1 ppm,"Mythimna separata; dose 0.1 ppm, spray, 6 days",> 80%
same,pest or weed control at 1 ppm,"Mythimna separata; dose 1 ppm, spray, 6 days",> 80%
same,pest or weed control at 10 ppm,"Mythimna separata; dose 10 ppm, spray, 6 days",> 80%
same,pest or weed control at 0.1 ppm,"Spodoptera litura; dose 0.1 ppm, spray, 6 days",> 80%
same,pest or weed control at 1 ppm,"Spodoptera litura; dose 1 ppm, spray, 6 days",> 80%
same,pest or weed control at 10 ppm,"Spodoptera litura; dose 10 ppm, spray, 6 days",> 80%
same,Fatality rate on Chilo suppressalis (%),Chilo suppressalis; 0.1 ppm,85%
same,Fatality rate on Chilo suppressalis (%),Chilo suppressalis; 1 ppm,100%
same,Fatality rate on Chilo suppressalis (%),Chilo suppressalis; 10 ppm,100%
same,pest or weed control at 0.1 ppm,"Chilo suppressalis; dose 0.1 ppm, spray, 6 days",> 80%
same,pest or weed control at 1 ppm,"Chilo suppressalis; dose 1 ppm, spray, 6 days",> 80%
same,pest or weed control at 10 ppm,"Chilo suppressalis; dose 10 ppm, spray, 6 days",> 80%
same,pest or weed control at 0.1 ppm,"Cnaphalocrocis medinalis; dose 0.1 ppm, spray, 6 days",> 80%
same,pest or weed control at 1 ppm,"Cnaphalocrocis medinalis; dose 1 ppm, spray, 6 days",> 80%
same,pest or weed control at 10 ppm,"Cnaphalocrocis medinalis; dose 10 ppm, spray, 6 days",> 80%
same,pest or weed control at 1 ppm,Tetranychus cinnabarinus; [2],> 80%
same,pest or weed control at 10 ppm,Tetranychus cinnabarinus; [3],> 80%
same,pest or weed control at 25 ppm,Tetranychus cinnabarinus; [4],> 80%
Cc1cc(C2=NOC(c3cc(Cl)c(F)c(Cl)c3)(C(F)(F)F)C2)ccc1C(=O)NCc1ncc(Cl)cc1Cl (stereo not drawn) [Compound 11],pest or weed control at 1 ppm,[1],> 80%
same,pest or weed control at 10 ppm,[1],> 80%
same,pest or weed control at 25 ppm,[1],> 80%
same,pest or weed control at 0.1 ppm,Plutella xylostella,> 80%
same,pest or weed control at 1 ppm,Plutella xylostella,> 80%
same,pest or weed control at 10 ppm,Plutella xylostella,> 80%
same,pest or weed control at 0.1 ppm,Pieris rapae,> 80%
same,pest or weed control at 1 ppm,Pieris rapae,> 80%
same,pest or weed control at 10 ppm,Pieris rapae,> 80%
same,pest or weed control at 0.1 ppm,Mythimna separata,> 80%
same,pest or weed control at 1 ppm,Mythimna separata,> 80%
same,pest or weed control at 10 ppm,Mythimna separata,> 80%
same,pest or weed control at 0.1 ppm,Spodoptera litura,> 80%
same,pest or weed control at 1 ppm,Spodoptera litura,> 80%
same,pest or weed control at 10 ppm,Spodoptera litura,> 80%
same,pest or weed control at 0.1 ppm,Chilo suppressalis,> 80%
same,pest or weed control at 1 ppm,Chilo suppressalis,> 80%
same,pest or weed control at 10 ppm,Chilo suppressalis,> 80%
same,pest or weed control at 0.1 ppm,Cnaphalocrocis medinalis,> 80%
same,pest or weed control at 1 ppm,Cnaphalocrocis medinalis,> 80%
same,pest or weed control at 10 ppm,Cnaphalocrocis medinalis,> 80%
same,pest or weed control at 1 ppm,Tetranychus cinnabarinus; 24 h,> 80%
same,pest or weed control at 10 ppm,Tetranychus cinnabarinus; 24 h,> 80%
same,pest or weed control at 25 ppm,Tetranychus cinnabarinus; 24 h,> 80%
Cc1cc(C2=NOC(c3cc(F)c(F)c(F)c3)(C(F)(F)F)C2)ccc1C(=O)NCc1ncc(Cl)cc1Cl (stereo not drawn) [Compound 12],pest or weed control at 1 ppm,"[1]; dose 1 ppm, spray, 6 days",> 80%
same,pest or weed control at 10 ppm,"[1]; dose 10 ppm, spray, 6 days",> 80%
same,pest or weed control at 25 ppm,"[1]; dose 25 ppm, spray, 6 days",> 80%
same,pest or weed control at 0.1 ppm,"Plutella xylostella; dose 0.1 ppm, spray, 6 days",> 80%
same,pest or weed control at 1 ppm,"Plutella xylostella; dose 1 ppm, spray, 6 days",> 80%
same,pest or weed control at 10 ppm,"Plutella xylostella; dose 10 ppm, spray, 6 days",> 80%
same,pest or weed control at 0.1 ppm,"Pieris rapae; dose 0.1 ppm, spray, 6 days",> 80%
same,pest or weed control at 1 ppm,"Pieris rapae; dose 1 ppm, spray, 6 days",> 80%
same,pest or weed control at 10 ppm,"Pieris rapae; dose 10 ppm, spray, 6 days",> 80%
same,pest or weed control at 0.1 ppm,"Mythimna separata; dose 0.1 ppm, spray, 6 days",> 80%
same,pest or weed control at 1 ppm,"Mythimna separata; dose 1 ppm, spray, 6 days",> 80%
same,pest or weed control at 10 ppm,"Mythimna separata; dose 10 ppm, spray, 6 days",> 80%
same,pest or weed control at 0.1 ppm,"Spodoptera litura; dose 0.1 ppm, spray, 6 days",> 80%
same,pest or weed control at 1 ppm,"Spodoptera litura; dose 1 ppm, spray, 6 days",> 80%
same,pest or weed control at 10 ppm,"Spodoptera litura; dose 10 ppm, spray, 6 days",> 80%
same,pest or weed control at 0.1 ppm,"Chilo suppressalis; dose 0.1 ppm, spray, 6 days",> 80%
same,pest or weed control at 1 ppm,"Chilo suppressalis; dose 1 ppm, spray, 6 days",> 80%
same,pest or weed control at 10 ppm,"Chilo suppressalis; dose 10 ppm, spray, 6 days",> 80%
same,pest or weed control at 0.1 ppm,"Cnaphalocrocis medinalis; dose 0.1 ppm, spray, 6 days",> 80%
same,pest or weed control at 1 ppm,"Cnaphalocrocis medinalis; dose 1 ppm, spray, 6 days",> 80%
same,pest or weed control at 10 ppm,"Cnaphalocrocis medinalis; dose 10 ppm, spray, 6 days",> 80%
same,pest or weed control at 1 ppm,Tetranychus cinnabarinus; [2],> 80%
same,pest or weed control at 10 ppm,Tetranychus cinnabarinus; [3],> 80%
same,pest or weed control at 25 ppm,Tetranychus cinnabarinus; [4],> 80%
